Test results from ChEMBL document CHEMBL3991601, “The target landscape of clinical kinase drugs” (Science, 2017).
Active and inactive are the calls of the source. Cut-off read from the data, not from the text of the source, for most assays here: actives have a measured Kd and inactives only a lower limit.

Key:
[1] = target: Protein-tyrosine kinase 6 (Homo sapiens, UniProt Q13882)
[2] = target: T1, Serine/threonine-protein kinase TAO1 (Homo sapiens, UniProt Q7L7X3)
T1 sequence (Q7L7X3 whole entry): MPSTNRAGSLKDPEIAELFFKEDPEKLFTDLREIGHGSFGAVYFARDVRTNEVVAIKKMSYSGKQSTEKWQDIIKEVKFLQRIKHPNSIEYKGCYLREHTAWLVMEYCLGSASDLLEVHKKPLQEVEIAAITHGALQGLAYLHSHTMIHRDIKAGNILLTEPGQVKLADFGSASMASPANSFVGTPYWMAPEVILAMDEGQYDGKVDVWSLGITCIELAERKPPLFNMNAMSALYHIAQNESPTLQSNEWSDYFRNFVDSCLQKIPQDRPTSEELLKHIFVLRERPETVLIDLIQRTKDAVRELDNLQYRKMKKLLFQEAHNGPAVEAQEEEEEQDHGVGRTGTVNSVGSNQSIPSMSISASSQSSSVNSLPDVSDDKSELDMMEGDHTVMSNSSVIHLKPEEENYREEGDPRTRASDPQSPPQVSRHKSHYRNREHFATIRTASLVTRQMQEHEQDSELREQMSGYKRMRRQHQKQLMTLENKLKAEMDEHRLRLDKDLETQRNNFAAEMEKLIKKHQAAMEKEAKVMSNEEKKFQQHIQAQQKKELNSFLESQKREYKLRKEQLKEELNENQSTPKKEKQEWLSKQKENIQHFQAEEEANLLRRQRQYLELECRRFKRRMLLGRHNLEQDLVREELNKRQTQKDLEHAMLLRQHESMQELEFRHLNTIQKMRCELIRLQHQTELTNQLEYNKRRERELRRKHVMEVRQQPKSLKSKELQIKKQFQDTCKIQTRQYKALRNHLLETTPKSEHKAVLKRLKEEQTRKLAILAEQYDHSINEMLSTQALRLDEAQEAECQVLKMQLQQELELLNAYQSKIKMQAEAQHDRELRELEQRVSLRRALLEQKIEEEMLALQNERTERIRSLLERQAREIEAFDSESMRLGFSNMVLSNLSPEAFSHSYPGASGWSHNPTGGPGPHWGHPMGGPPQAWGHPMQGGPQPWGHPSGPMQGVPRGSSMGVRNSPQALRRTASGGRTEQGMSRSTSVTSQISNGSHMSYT

[3] = target: ATP-dependent RNA helicase DDX3X (Homo sapiens, UniProt O00571)
[4] = target: T2, Mitogen-activated protein kinase kinase kinase 5 (Homo sapiens, UniProt Q99683)
T2 sequence (Q99683 whole entry): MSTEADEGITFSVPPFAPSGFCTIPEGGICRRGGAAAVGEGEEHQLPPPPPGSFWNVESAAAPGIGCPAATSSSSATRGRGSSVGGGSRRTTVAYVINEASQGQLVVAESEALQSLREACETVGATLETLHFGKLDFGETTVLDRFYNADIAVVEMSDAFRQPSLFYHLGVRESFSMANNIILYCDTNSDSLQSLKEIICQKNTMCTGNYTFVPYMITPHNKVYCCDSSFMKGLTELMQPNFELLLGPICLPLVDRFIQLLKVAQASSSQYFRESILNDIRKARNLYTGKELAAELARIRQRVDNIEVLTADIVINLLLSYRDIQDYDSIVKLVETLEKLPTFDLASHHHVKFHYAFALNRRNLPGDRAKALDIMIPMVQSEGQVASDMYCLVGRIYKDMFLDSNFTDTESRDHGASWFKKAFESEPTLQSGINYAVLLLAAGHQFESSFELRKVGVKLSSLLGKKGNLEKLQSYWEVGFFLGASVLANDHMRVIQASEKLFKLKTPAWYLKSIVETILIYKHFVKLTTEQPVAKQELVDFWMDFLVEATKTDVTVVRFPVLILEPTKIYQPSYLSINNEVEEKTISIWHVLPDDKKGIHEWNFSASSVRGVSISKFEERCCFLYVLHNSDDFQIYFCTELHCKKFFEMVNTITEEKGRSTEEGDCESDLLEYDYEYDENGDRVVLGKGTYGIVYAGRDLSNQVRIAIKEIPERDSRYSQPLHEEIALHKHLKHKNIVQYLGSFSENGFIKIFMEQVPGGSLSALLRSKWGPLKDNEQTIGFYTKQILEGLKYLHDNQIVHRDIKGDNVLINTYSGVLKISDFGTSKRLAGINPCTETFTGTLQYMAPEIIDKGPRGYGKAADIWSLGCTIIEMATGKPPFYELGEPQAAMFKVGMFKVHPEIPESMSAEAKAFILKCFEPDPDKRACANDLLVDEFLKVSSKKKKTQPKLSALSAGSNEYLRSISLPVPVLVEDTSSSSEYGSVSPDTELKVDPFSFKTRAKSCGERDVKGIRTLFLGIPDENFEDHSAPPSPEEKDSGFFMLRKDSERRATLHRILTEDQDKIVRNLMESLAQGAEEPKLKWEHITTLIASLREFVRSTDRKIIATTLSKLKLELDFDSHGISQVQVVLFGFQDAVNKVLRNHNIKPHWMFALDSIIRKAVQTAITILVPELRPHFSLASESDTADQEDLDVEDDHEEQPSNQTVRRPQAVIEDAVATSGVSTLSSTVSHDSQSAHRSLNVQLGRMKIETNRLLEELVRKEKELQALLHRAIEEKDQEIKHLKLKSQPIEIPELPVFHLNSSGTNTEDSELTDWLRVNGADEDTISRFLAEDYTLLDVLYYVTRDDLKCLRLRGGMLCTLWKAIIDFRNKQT

[5] = target: Casein kinase I isoform epsilon (Homo sapiens, UniProt P49674)
[6] = target: Protein kinase C delta type (Homo sapiens, UniProt Q05655)
[7] = target: T3, Ribosyldihydronicotinamide dehydrogenase [quinone] (Homo sapiens, UniProt P16083)
T3 sequence (P16083 whole entry): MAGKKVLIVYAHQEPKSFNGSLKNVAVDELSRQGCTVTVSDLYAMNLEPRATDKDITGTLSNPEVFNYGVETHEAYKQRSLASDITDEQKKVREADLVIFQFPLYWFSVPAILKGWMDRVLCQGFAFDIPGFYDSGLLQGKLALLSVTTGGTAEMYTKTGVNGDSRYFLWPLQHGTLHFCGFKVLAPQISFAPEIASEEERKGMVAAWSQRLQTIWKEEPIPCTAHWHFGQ

[8] = target: Cyclin-dependent kinase 13 (Homo sapiens, UniProt Q14004)
[9] = target: Cyclin-dependent kinase 6 (Homo sapiens, UniProt Q00534)
Note: in the data inactive means no Kd found up to 30 µM.

Cyclin-dependent kinase 6, sequence (Q00534 whole entry): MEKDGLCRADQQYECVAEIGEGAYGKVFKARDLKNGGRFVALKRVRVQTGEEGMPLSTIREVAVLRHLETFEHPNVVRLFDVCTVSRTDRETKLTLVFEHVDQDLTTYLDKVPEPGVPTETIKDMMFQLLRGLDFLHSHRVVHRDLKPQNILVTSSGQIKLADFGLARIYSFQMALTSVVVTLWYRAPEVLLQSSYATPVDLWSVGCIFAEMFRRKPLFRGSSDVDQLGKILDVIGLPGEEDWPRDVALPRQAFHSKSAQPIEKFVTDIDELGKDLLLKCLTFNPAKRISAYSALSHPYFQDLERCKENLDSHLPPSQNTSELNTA
Protein-tyrosine kinase 6, sequence (Q13882 whole entry): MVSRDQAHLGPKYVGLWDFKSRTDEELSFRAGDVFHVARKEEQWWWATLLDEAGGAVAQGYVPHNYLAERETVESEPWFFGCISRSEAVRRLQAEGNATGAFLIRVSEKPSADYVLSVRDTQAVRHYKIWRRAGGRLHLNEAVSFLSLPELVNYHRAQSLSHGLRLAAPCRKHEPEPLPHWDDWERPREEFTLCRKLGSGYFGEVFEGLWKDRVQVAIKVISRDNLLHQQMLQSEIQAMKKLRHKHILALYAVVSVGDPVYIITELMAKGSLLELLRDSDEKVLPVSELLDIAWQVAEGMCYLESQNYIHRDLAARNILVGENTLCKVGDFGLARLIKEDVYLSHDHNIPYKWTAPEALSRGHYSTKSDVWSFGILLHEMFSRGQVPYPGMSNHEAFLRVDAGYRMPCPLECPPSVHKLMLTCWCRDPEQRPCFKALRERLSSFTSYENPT
Cyclin-dependent kinase 13, sequence (Q14004 whole entry): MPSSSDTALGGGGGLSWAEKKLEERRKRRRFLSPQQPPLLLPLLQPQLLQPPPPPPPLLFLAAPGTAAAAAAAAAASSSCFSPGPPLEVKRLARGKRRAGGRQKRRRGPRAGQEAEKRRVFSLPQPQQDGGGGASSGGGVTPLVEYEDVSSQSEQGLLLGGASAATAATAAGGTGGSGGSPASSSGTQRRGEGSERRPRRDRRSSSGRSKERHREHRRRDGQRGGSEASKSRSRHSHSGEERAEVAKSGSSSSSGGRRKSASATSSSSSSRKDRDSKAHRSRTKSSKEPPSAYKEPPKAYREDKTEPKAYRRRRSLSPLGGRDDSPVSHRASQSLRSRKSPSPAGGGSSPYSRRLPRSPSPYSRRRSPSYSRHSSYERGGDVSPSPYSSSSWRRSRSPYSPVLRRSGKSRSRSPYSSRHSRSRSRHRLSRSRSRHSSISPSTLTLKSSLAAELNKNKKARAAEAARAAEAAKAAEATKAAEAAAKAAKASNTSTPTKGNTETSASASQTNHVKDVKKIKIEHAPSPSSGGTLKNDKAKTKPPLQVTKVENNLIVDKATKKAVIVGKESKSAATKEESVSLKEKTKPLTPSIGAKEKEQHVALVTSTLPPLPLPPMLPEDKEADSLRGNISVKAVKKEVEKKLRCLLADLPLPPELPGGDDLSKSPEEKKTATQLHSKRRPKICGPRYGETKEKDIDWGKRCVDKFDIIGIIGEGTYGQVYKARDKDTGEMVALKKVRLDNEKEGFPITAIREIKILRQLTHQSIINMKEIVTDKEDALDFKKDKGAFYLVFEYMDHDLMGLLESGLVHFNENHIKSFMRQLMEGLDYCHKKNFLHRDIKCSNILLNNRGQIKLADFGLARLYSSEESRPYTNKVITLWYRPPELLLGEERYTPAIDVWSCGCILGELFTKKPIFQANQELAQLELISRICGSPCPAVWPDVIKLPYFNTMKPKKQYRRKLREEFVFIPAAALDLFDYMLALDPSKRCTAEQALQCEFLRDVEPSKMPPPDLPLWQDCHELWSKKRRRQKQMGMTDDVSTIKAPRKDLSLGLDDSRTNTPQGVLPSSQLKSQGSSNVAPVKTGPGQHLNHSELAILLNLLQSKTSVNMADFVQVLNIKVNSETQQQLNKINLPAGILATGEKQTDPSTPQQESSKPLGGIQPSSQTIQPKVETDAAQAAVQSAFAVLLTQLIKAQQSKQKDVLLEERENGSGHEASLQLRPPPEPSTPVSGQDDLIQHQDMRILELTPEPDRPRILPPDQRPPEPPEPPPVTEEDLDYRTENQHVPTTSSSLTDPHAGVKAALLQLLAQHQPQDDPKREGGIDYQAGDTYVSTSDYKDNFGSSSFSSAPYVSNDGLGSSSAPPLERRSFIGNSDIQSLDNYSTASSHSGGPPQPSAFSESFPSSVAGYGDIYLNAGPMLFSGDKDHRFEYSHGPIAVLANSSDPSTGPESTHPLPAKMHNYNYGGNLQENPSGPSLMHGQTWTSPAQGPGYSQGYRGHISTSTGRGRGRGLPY
ATP-dependent RNA helicase DDX3X, sequence (O00571 whole entry): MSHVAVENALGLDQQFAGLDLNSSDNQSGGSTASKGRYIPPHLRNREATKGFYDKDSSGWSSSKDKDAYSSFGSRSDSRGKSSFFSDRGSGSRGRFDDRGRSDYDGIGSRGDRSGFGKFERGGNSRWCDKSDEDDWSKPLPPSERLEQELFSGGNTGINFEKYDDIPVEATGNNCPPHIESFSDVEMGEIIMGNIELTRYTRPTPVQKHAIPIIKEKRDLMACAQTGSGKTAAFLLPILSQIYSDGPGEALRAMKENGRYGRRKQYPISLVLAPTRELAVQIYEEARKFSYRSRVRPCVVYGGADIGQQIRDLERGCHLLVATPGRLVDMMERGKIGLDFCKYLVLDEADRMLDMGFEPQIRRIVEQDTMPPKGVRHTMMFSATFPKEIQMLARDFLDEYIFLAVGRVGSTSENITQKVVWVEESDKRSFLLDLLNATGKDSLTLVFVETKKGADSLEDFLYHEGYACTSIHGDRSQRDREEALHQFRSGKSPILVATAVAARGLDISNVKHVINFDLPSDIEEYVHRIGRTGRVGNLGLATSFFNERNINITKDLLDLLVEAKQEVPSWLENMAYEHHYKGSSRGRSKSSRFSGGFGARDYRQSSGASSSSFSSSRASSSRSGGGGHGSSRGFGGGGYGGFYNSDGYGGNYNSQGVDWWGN
Casein kinase I isoform epsilon, sequence (P49674 whole entry, canonical isoform): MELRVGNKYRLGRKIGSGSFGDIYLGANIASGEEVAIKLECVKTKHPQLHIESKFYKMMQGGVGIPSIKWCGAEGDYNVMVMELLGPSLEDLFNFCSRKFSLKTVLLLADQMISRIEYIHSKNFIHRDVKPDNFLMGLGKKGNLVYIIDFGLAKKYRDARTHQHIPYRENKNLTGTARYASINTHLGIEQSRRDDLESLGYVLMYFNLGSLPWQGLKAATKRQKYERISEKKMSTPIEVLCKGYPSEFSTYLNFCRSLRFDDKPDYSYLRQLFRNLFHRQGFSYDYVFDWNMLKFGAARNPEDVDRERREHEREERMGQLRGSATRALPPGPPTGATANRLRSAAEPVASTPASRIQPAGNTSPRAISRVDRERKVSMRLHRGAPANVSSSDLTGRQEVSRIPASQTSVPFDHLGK
Protein kinase C delta type, sequence (Q05655 whole entry): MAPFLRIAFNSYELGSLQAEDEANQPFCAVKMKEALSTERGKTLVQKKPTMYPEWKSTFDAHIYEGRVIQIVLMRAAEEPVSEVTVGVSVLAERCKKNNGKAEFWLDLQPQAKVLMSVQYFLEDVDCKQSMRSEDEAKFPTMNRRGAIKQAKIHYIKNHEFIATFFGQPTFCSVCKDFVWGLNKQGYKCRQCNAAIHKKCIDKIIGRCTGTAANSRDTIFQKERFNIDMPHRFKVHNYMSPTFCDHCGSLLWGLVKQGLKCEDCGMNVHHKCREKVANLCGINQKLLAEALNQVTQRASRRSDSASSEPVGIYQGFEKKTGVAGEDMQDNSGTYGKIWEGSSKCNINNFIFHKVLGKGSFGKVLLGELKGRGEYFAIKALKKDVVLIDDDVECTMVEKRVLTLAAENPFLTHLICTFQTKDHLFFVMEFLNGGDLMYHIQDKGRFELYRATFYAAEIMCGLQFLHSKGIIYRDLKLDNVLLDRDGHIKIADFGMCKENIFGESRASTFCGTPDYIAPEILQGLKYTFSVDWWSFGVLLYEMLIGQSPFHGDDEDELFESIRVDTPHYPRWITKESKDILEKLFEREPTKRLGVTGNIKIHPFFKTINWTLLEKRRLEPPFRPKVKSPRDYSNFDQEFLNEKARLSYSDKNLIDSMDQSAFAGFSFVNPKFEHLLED

| Structure (SMILES) | Kd [3] | Kd [7] | Kd [9] | Kd [1] | Kd [2] | Kd [4] | Kd [5] | Kd [6] | Kd [8] |
| --- | --- | --- | --- | --- | --- | --- | --- | --- | --- |
| Cn1cc(-c2[nH]c3cc(NC(=O)[C@H](N)C4CCCCC4)cc4c3c2C=NNC4=O)cn1 | > 30 µM (inactive) | > 30 µM (inactive) | > 30 µM (inactive) | > 30 µM (inactive) | > 30 µM (inactive) | > 30 µM (inactive) | > 30 µM (inactive) | > 30 µM (inactive) | > 30 µM (inactive) |
| Cc1c(NC(=O)OC[C@@H]2COCCN2)cn2ncnc(Nc3ccc4c(cnn4Cc4cccc(F)c4)c3)c12 [AC-480] | > 30 µM (inactive) | > 30 µM (inactive) | > 30 µM (inactive) | > 30 µM (inactive) | > 30 µM (inactive) | > 30 µM (inactive) | > 30 µM (inactive) | > 30 µM (inactive) | > 30 µM (inactive) |
| C=CCn1c(=O)c2cnc(Nc3ccc(N4CCN(C)CC4)cc3)nc2n1-c1cccc(C(C)(C)O)n1 [ADAVOSERTIB] | > 30 µM (inactive) | > 30 µM (inactive) | > 30 µM (inactive) | > 30 µM (inactive) |  | > 30 µM (inactive) | > 30 µM (inactive) | > 30 µM (inactive) | > 30 µM (inactive) |
| CC1(COc2ccc3c(c2)ncn3-c2ccc3cccc(N4CCC(N)CC4)c3n2)COC1 [CRENOLANIB] | > 30 µM (inactive) |  | > 30 µM (inactive) | > 30 µM (inactive) | 1.24 µM | > 30 µM (inactive) | > 30 µM (inactive) |  | > 30 µM (inactive) |
| CNC(=O)c1ccc(Nc2ncc(C(F)(F)F)c(NCc3nccnc3N(C)S(C)(=O)=O)n2)cc1 [DEFACTINIB] | > 30 µM (inactive) | > 30 µM (inactive) |  | > 30 µM (inactive) | 3.23 µM (active) | > 30 µM (inactive) | > 30 µM (inactive) | > 30 µM (inactive) | 3.11 µM (active) |
| O=S(=O)(c1cccc2cnccc12)N1CCCNCC1 [FASUDIL] | > 30 µM (inactive) | 2.45 µM (active) | > 30 µM (inactive) | > 30 µM (inactive) |  | > 30 µM (inactive) | > 30 µM (inactive) |  |  |
| C[C@]1(O)C[C@@H](c2nc(-c3ccc4ccc(-c5ccccc5)nc4c3)c3c(N)nccn32)C1 [LINSITINIB] | > 30 µM (inactive) | > 30 µM (inactive) | > 30 µM (inactive) |  |  | > 30 µM (inactive) | > 30 µM (inactive) |  | > 30 µM (inactive) |
| CN(c1ncccc1CNc1nc(Nc2ccc3c(c2)CC(=O)N3)ncc1C(F)(F)F)S(C)(=O)=O [PF-00562271] | > 30 µM (inactive) | > 30 µM (inactive) | > 30 µM (inactive) | > 30 µM (inactive) |  | > 30 µM (inactive) | > 30 µM (inactive) |  | 4.5 µM (active) |
| CN1CCN(c2nc(C3=C(c4c[nH]c5ccccc45)C(=O)NC3=O)c3ccccc3n2)CC1 [SOTRASTAURIN] | > 30 µM (inactive) | > 30 µM (inactive) | > 30 µM (inactive) | > 30 µM (inactive) |  | > 30 µM (inactive) | > 30 µM (inactive) | 0.005 µM (active) | > 30 µM (inactive) |

Continued, in another order:

| Kd [3] | Kd [7] | Kd [9] | Structure (SMILES) | Kd [1] | Kd [2] | Kd [4] | Kd [5] | Kd [6] | Kd [8] |
| --- | --- | --- | --- | --- | --- | --- | --- | --- | --- |
| > 30 µM (inactive) | > 30 µM (inactive) | > 30 µM (inactive) | O=c1[nH]c([C@@H]2CCCN2)nc2c1oc1ccc(Cl)cc12 | > 30 µM (inactive) | > 30 µM (inactive) | > 30 µM (inactive) | > 30 µM (inactive) | > 30 µM (inactive) | > 30 µM (inactive) |
| > 30 µM (inactive) | > 30 µM (inactive) |  | CCN1CCN(Cc2ccc(Nc3ncc(F)c(-c4cc(F)c5nc(C)n(C(C)C)c5c4)n3)nc2)CC1 [ABEMACICLIB] | > 30 µM (inactive) |  | > 30 µM (inactive) | > 30 µM (inactive) | 0.795 µM (active) | > 30 µM (inactive) |
| > 30 µM (inactive) | > 30 µM (inactive) | > 30 µM (inactive) | CN(C)C/C=C/C(=O)Nc1cc2c(Nc3ccc(F)c(Cl)c3)ncnc2cc1O[C@H]1CCOC1 [AFATINIB] |  |  |  |  |  |  |
| > 30 µM (inactive) | > 30 µM (inactive) | > 30 µM (inactive) | CCN(CCCOc1ccc2c(Nc3cc(CC(=O)Nc4cccc(F)c4)n[nH]3)ncnc2c1)CCOP(=O)(O)O [BARASERTIB] | > 30 µM (inactive) |  | > 30 µM (inactive) | > 30 µM (inactive) | > 30 µM (inactive) | > 30 µM (inactive) |
| > 30 µM (inactive) | > 30 µM (inactive) | > 30 µM (inactive) | C[C@@]1(C(=O)Nc2ccc(F)nc2)CCCN1c1nc(Nc2cc(C3CC3)n[nH]2)c2cccn2n1 [BMS-754807] |  |  |  |  |  |  |
| > 30 µM (inactive) | > 30 µM (inactive) | > 30 µM (inactive) | COc1cc2c(Oc3ccc4[nH]c(C)cc4c3F)ncnc2cc1OCCCN1CCCC1 [CEDIRANIB] | 1.22 µM (active) |  |  |  |  |  |
| > 30 µM (inactive) | > 30 µM (inactive) | > 30 µM (inactive) | Cn1c(=O)n(-c2ccc(C(C)(C)C#N)cc2)c2c3cc(-c4cnc5ccccc5c4)ccc3ncc21 [DACTOLISIB] | > 30 µM (inactive) |  | > 30 µM (inactive) | > 30 µM (inactive) | > 30 µM (inactive) | > 30 µM (inactive) |
| > 30 µM (inactive) | > 30 µM (inactive) | > 30 µM (inactive) | CC1(C)CNc2cc(NC(=O)c3cccnc3NCc3ccncc3)ccc21 [MOTESANIB] |  |  |  |  |  |  |
| > 30 µM (inactive) | > 30 µM (inactive) | > 30 µM (inactive) | Cn1cnc2c(F)c(Nc3ccc(Br)cc3Cl)c(C(=O)NOCCO)cc21 [SELUMETINIB] |  |  |  |  |  |  |
| > 30 µM (inactive) | > 30 µM (inactive) | > 30 µM (inactive) | COc1cc2c(N3CCN(C(=O)Nc4ccc(OC(C)C)cc4)CC3)ncnc2cc1OCCCN1CCCCC1 [TANDUTINIB] |  |  |  |  |  |  |
